Source: patent publication US20260283990A1, “COMPOUNDS FOR TREATING RETT SYNDROME AND OTHER DISORDERS” (UNRAVEL BIOSCIENCES, INC., priority 2023, published 2026)
Entries after “also recorded” stand apart in the source; their conditions may differ. Read-outs that look alike come from different tables or passages of the source. Square brackets hold non-standard residues; d marks the D form. Peptide text beside a SMILES is read from it. αMeP = C[C@@]1(C(=O)O)CCCN1

Experiments:
[1] = test system: brain and muscle gene networks and pathways; test: RNAseq of brain and muscle of dosed mice analysed with BioNav / Reactome; format: in vivo, C57B/L6 mice
Method: FIGS. 2A-2B. BioNav™ plots organized by chemical structure similarity of 40,000 compounds. Differential scores of predicted drugs mimicking vorinostat- or RVLOO2-dosed mouse brain (FIG. 2A) or femoral muscle (FIG. 2B) are plotted. Cluster of HDAC inhibitors is circled (FIG. 2B).
FIGS. 3A-3E. […] Genes associated with network level changes in mice treated with vorinostat or RVL002 were analyzed and sorted according to Reactome.org pathways (91). RVL002 engages pathways in the brain and muscle tissues similar to those resulting from vorinostat dosing (FIG. 3A). […] RVL002 engages MeCP2 pathways in the brain and muscle tissues (FIG. 3E).
Brain and muscle tissues from these mice were submitted to RNA sequencing (RNAseq) and analyzed on our BioNav™ generated from the network model of 40,000 compounds with transcriptomic data. […] By taking our calculated interacting gene sets we identified genes and networks unique to RVL002 (FIGS. 3A-3E). The gene expression profiles of the brains of mice treated with vorinostat is largely due to its highly brain-permeable metabolite and this profile is closely mimicked by RVL002 while RVL002 increased bioavailability and biodistribution is reflected in a proportionally more extensive number of genes whose expression levels are altered. The top 4 pathways are associated with MeCP2 despite using wild-type C57B/L6 mice (Table 2), and several other pathways associated with MeCP2 are identified, albeit with lower statistical significance (Table 3).

RTT tadpoles (MeCP2 KD) = test: Tadpole tracking system: swimming behavior of RTT (MeCP2 KD) tadpoles; format: in vivo, Xenopus; settings: for swimming pattern of treated RTT tadpoles: n=5 per dish
Method: FIGS. 4A-4F. FIG. 4A) Occupation density plot from tracking tadpoles swimming and resting locations over a 10-minute recording session (n=5 per 10 ml dish, at 30 frames per seconds), where high density means the tadpoles where recorded at that XY coordinate most frequently. FIG. 4A) wild-type tadpoles (WT) normal behavior is to swim along the edge of the dish in an area termed the “outer area”, while the area within the white center circle is termed the “inner area” and is mostly dark. […] Additionally, RTT tadpoles cover less distance in the outer area, preferring to cross the inner area. FIG. 4C) example of multiple parameters derived from the tracking system, highlighting metrics corresponding to behavioral phenotypes. FIG. 4D) one such metric of epoch-based entropy which captures information about the swimming behavior over a recording session and how a group diverges from the others, in this case indicating favorable improvement in RTT tadpole symptoms treated with RVL002 (epoch=15-second). FIG. 4E) one such metric is the inner area circular swimming. Locomotor assays is commonly used in mouse model of neurological diseases, it can also assess the behavior in tadpole models. Both vorinostat and RVL002 reduced the average inner dish circular swimming behavior in KD tadpoles compared to vehicle controls.
(§1) Briefly, Xenopus embryos at the 4-cell stage were microinjected with Cas9 protein and guide RNA complex aimed at 3 sites of the MeCP2 gene corresponding to DNA binding and the mutation locations of the most severe patient cases. Embryos could develop into free-swimming tadpoles, and no effect on viability was observed relative to controls. Tadpoles presented a spectrum of behavioral phenotypes, including seizures. qPCR analysis confirmed a range of MeCP2 KO of 5-95% of the cells, and immunostaining of tissue sections indicated mosaic and overall reduction of MeCP2 protein levels and a-tubulin acetylation (Novak et al. 2022). Based on seizure and behavioral screens in RTT tadpoles, we evaluate the tolerability and efficacy of any number of predicted compounds. The top performing drug is vorinostat, a hydroxamic acid pan-Histone Deacetylase inhibitor (HDACi), approved for cutaneous T cell lymphoma (Novak et al., 2022). […] These six scores are then summed to provide a cumulative severity score from 0-12 (Guy et al., 2001, 2007).
(§2) Using our tadpole tracking system, we evaluated the effect of vorinostat and RVL002 on WT and RTT tadpoles swimming behavior (FIGS. 4A-4F). WT tadpoles spend most of the time swimming along the outside of the dish and only occasionally cross through the center of the dish, while RTT tadpoles swim more erratically and tend to dart through the center of the dish and stop more frequently (FIG. 4A-4B, n=5 per dish). These abnormal swimming patterns could be related to motor irregularities and seizures seen in human RTT patients. […] The entropy captures deviations in swimming behavior, including distance and area explored. […] We compared the gene expression signatures of vorinostat- and RVL002-treated tadpole RTT model animals and wild type controls. In wild type animals, 100% of genes with significant expression changes (fold change >2, p<0.05) due to vorinostat treatment were accounted for by RVL002 treatment. In RTT animals, RVL002 replicated 92.5% of gene expression changes.

RTT tadpoles = test: Viability measurement in WT and RTT tadpoles; format: in vivo, Xenopus; settings: RVL002 100 uM compared with vorinostat 50 uM, n=10 per condition
mecp2-acss3-2KD tadpoles = test: Tadpole tracking: double knockdown of MeCP2 and ACSS3 (mecp2-acss3-2KD); format: in vivo, Xenopus laevis; settings: 50 μM every other day from 6 dpf, recorded at 15 dpf
Method: FIGS. 6A-6C. […] Wild-type (WT), MeCP2 knockdown (mecp2-KD) and double knockdown of MeCP2 and ACSS3 (mecp2-acss3-2KD) tadpoles, were compared in the presence of absence of 50 μM RVL002 added to the swimming media every other day since 6 dpf.
Using our tadpole tracking system, we evaluated the effect of RVL002 on WT, RTT and tadpoles deficient for both MeCP2 and ACSS3 (FIGS. 6A-6C).

MeCP2-/y mice [2] = test: Optomotor assay in MeCP2-/y mice treated with RVL002; format: in vivo; settings: 50 mg/kg P.O. daily from P34
Method: (§3) FIGS. 5A-5B. Mice (KO MeCP2^−/y or WT littermates) were treated with 50 mg/kg P.O. RVL002 daily following the onset of severe symptoms at 34 days post-natal (P34).

[3] = Pharmacokinetic study in C57BL/6J mice (plasma and tissues); format: in vivo
MeCP2-/y mice [4] = test: Rett cumulative severity score in MeCP2-/y mice treated with RVL002; format: in vivo; settings: 50 mg/kg P.O. daily after onset of severe symptoms (P34), vs vehicle
Method: as §3
(§4) Briefly, Xenopus embryos at the 4-cell stage were microinjected with Cas9 protein and guide RNA complex aimed at 3 sites of the MeCP2 gene corresponding to DNA binding and the mutation locations of the most severe patient cases. Embryos could develop into free-swimming tadpoles, and no effect on viability was observed relative to controls. Tadpoles presented a spectrum of behavioral phenotypes, including seizures. qPCR analysis confirmed a range of MeCP2 KO of 5-95% of the cells, and immunostaining of tissue sections indicated mosaic and overall reduction of MeCP2 protein levels and a-tubulin acetylation (Novak et al. 2022). Based on seizure and behavioral screens in RTT tadpoles, we evaluate the tolerability and efficacy of any number of predicted compounds. The top performing drug is vorinostat, a hydroxamic acid pan-Histone Deacetylase inhibitor (HDACi), approved for cutaneous T cell lymphoma (Novak et al., 2022). […]
Mice (MeCP2-/y or WT littermates) were treated with 50 mg/kg P.O. RVL002 daily following the onset of severe symptoms as determined by the Rett cumulative severity scoring system (Guy et al., 2001, 2007).

[5] = test system: tadpole RTT model animals and wild type controls; test: Gene expression signatures of vorinostat- and RVL002-treated tadpoles; format: in vivo, Xenopus
Excerpt: as §2

HDAC = test: HDACi activity (statement, no method)
Mecp2-null male mice [6] = settings: cited from earlier work; for Rett cumulative severity score, head-to-head comparison: older mice with extensive symptoms prior to treatment; for efficacy when starting treatment after the onset of symptoms: start P36
RTT tadpole model = test: Drug screen in the RTT tadpole model (behavior, survival, seizures, toxicity); format: in vivo, Xenopus; settings: seizures as readout
Excerpt: as §1
RTT tadpole transcriptomes were compared against wild-type (WT) sibling transcriptomes using our proprietary BioNav™ software, which ranked the entirety of compounds from the National Institute of Health (NIH) Library of Integrated Network-Based Cellular Signatures (LINCS) database (Keenan et al., 2018) that were predicted to shift a RTT state to a healthy state. The top candidates were downselected to include only FDA-approved drugs and screened in the RTT tadpole model using behavior, survival, and seizures as an efficacy readout, together with toxicity phenotypes. […] Vorinostat was selected for more detailed evaluation in tadpoles and mouse models. […] Ciliary morphology was also normalized by drug treatment across the entire body, and vorinostat reduced Ib4+ inflammatory cells in the GI tract (Novak et al., 2022).

Mecp2-null male mice [7] = test: Vorinostat and trofinetide in the MeCP2-null mouse model; format: in vivo; settings: daily IP from P30
Excerpt: as §4
Using trofinetide as a positive control, we evaluated the feasibility of initiating drug dosing starting at 30 days post-natal (P30), unlike the majority of RTT pre-clinical studies starting before the onset of symptoms. […] We evaluated the comparative efficacy of oral vs. IP dosing of vorinostat in MeCP2-null mice starting at 36 days post-natal (P36), well after the onset of symptoms, to better mimic clinical presentation of RTT patients.

[8] = test system: RTT models (MeCP2 deficit); settings: cited from earlier work
tadpole proteome = settings: whole organism Thermal Proteome Profiling; cited from earlier work
microtubule = test: Microtubule polymerization assays; format: biochemical
[9] = Pharmacokinetic (PK) assay of vorinostat, oral vs. IP; format: in vivo

Compound: O=C(O)CCC(=O)Nc1ccccc1 [RVL002, succinanilic acid]
- muscle RNAseq differences in the cluster of HDAC inhibitors (BioNav) ([1]; mouse femoral muscle, 50 mg/kg p.o.): acts through non-HDAC-mediated pathways
- Reactome pathways of genes unique/responding to RVL002 ([1]; wild-type mice, brain and muscle (Tables 2, 3)): MeCP2-pathway-mediated effect
- reduction in inner dish circular swimming compared to vehicle dosed KDs (RTT tadpoles (MeCP2 KD); RTT KD tadpoles, 50 μM): 78%
- epoch-based entropy of swimming behavior (RTT tadpoles (MeCP2 KD); RTT tadpoles, 15-second epoch): rescue the behavior of RTT tadpoles
- swimming pattern of treated RTT tadpoles (RTT tadpoles (MeCP2 KD); RTT tadpoles): adopt more circular motion and stop less frequently
- tolerability and viability of RTT tadpoles (RTT tadpoles): well tolerated and improves the viability of RTT tadpoles
- response across exploratory behavior, swimming velocity and number of tadpoles in a school (mecp2-acss3-2KD tadpoles): did not respond
- optomotor assay (MeCP2-/y mice [2]): delayed the progression in severity of behavioral and physiological phenotypes
- RVL002/vorinostat Ratio of T1/2 ([3]; mouse, in vivo): 2.6
- RVL002/vorinostat Ratio of Tmax ([3]; mouse, in vivo): 0.8
- biodistribution, crossing the blood brain barrier ([3]; mouse, in vivo, 50 mg/kg): better biodistribution including in crossing the blood brain barrier
- AUC(0-inf) ([3]; mouse, in vivo, ip, 50 mg/kg): 11600 ng·h/mL
- AUC(0-t) ([3]; mouse, in vivo, ip, 50 mg/kg): 11800 ng·h/mL
- Cmax ([3]; mouse, in vivo, ip, 50 mg/kg): 12300 ng/mL
- Tmax ([3]; mouse, in vivo, ip, 50 mg/kg): 0.3 h
- half-life ([3]; mouse, in vivo, ip, 50 mg/kg): 3.3 h
- Rett cumulative severity score (MeCP2-/y mice [4]): delayed the progression in severity of behavioral and physiological phenotypes; also recorded: significantly reduce the severity of the Rett syndrome phenotypes
- gene expression changes of vorinostat replicated by RVL002 ([5]; RTT animals): 92.5%
- genes with significant expression changes due to vorinostat treatment accounted for by RVL002 treatment ([5]; wild type animals, fold change >2, p<0.05): 100%
- HDACi activity (HDAC): lacks HDACi activity

Compound: C[C@@]1(C(=O)N[C@@H](CCC(=O)O)C(=O)O)CCCN1C(=O)CN [Trofinetide, trofinetide] (H-Gly-[αMeP]-Glu-OH)
- Rett cumulative severity score, head-to-head comparison (Mecp2-null male mice [6]): did not improve the cumulative severity score
- efficacy when starting treatment after the onset of symptoms (Mecp2-null male mice [6]; trofinetide): failed to show efficacy
- reversal of RTT symptoms in RTT tadpole screen (RTT tadpole model): showed efficacy, albeit lower than the predicted drugs

Compound: O=C(CCCCCCC(=O)Nc1ccccc1)NO [Vorinostat, vorinostat]
- overlap of vorinostat with RVL002 in HDAC associated pathways ([1]; muscle tissues (FIG. 3D)): 97.3%
- efficacy by Rett cumulative severity scoring system, 50 vs 100 mg/kg (Mecp2-null male mice [7]): better efficacy at 50 mg/kg
- Y-maze performance, brain and GI tubulin acetylation normalization, inflammatory cytokine levels, colon goblet cells inflammation (Mecp2-null male mice [7]; vorinostat vs trofinetide 75 mg/kg): outperformed trofinetide
- abnormal cilia morphology in the olfactory bulb ([8]; MeCP2 deficit): reversed
- Ib4+ inflammatory cells in the GI tract ([8]; RTT models): reduced
- a-tubulin acetylation in brain and elsewhere in the body ([8]; RTT models): normalized
- reduction in average inner dish swimming compared to vehicle dosed KDs (RTT tadpoles (MeCP2 KD); RTT KD tadpoles, 5 μM): 42%
- swimming pattern of treated RTT tadpoles (RTT tadpoles (MeCP2 KD); RTT tadpoles): patterns suggestive of darting and seizure are still observed
- α- and β-tubulins, acetyl CoA synthetase 3, ribosome protein S6 as targets (tadpole proteome): significant, direct targets
- efficacy when starting treatment after the onset of symptoms (Mecp2-null male mice [6]; IP delivery): failed to show efficacy
- Rett cumulative severity score, head-to-head comparison (Mecp2-null male mice [6]): effective improvement
- efficacy when starting treatment after the onset of symptoms (Mecp2-null male mice [6]; oral dosing): improved efficacy
- microtubule polymerization (microtubule): mild microtubule polymerization effects
- Tmax ([3]; C57BL/6J mice, 50 mg/kg intraperitoneally, mean): 0.3 h
- biodistribution, crossing the blood brain barrier ([3]; mouse, in vivo, 50 mg/kg): does not efficiently cross the blood brain barrier
- AUC(0-inf) ([3]; mouse, in vivo, ip, 50 mg/kg): 640 ng·h/mL
- AUC(0-t) ([3]; mouse, in vivo, ip, 50 mg/kg): 632 ng·h/mL
- Cmax ([3]; mouse, in vivo, ip, 50 mg/kg): 713 ng/mL
- half-life ([3]; mouse, in vivo, ip, 50 mg/kg): 1.3 h
- release profile after oral dosing [9]: more sustained release of vorinostat at lower concentrations
- reversal of RTT symptoms in RTT tadpole screen (RTT tadpole model): stronger reversal of RTT symptoms at nontoxic concentrations

Compound: ivermectin
- α- and β-tubulins, acetyl CoA synthetase 3, ribosome protein S6 as targets (tadpole proteome): significant, direct targets
- microtubule polymerization (microtubule): mild microtubule polymerization effects
- reversal of RTT symptoms in RTT tadpole screen (RTT tadpole model): stronger reversal of RTT symptoms at nontoxic concentrations
